The results in this text go back to patent publication US7741337B2, “Azonafide derivatives, methods for their production and pharmaceutical compositions therefrom” (Unibioscreen S.A., priority 2005, dated 2010).

The subject of assay [1] is human cancer cell lines Hs683, U-373MG, HCT-15, LoVo, A549 and MCF-7. Briefly: MTT test, effect on overall cell growth (mean of six cell lines, examples 3 to 26). Format: cell-based. As to conditions: mean of six cell lines Hs683, U-373MG, A549, MCF-7, 72 hours incubation, range of molar concentrations resulting in 50% inhibition of overall tumor cells growth. As for the experimental part:
(§1) MTT tests were performed in order to rapidly, i.e. within 5 days, measure the effect of azonafide derivatives of this invention on the overall cell growth. The test measures the number of metabolically active living cells that are able to transform the yellow product 3-(4,5-dimethylthiazol-2-yl)-2,5-diphenyl tetrazolium bromide (herein referred as MTT) into the blue product formazan dye by mitochondrial reduction. The amount of formazan obtained at the end of the experiment, measured by means of a spectrophotometer, is directly proportional to the number of living cells. Optical density determination thus enables a quantitative measurement of the effect of the investigated compounds as compared to the control condition (untreated cells) and/or to other reference compounds.
(§2) Height human cancer cell lines described in table 1 were used in the following MTT tests. These cell lines cover six histological cancer types, being prostate, glioma, pancreas, colon, lung and breast cancers. Cells were allowed to grow in 96-well micro-wells with a flat bottom with an amount of 100 μl of cell suspension per well with 1,000 to 4,000 cells/well depending on the cell type used. Each cell line was seeded in a well known MEM 5% serum culture medium.
(§3) The detailed experimental procedure was as following: after a 24-hour period of incubation at 37° C., the culture medium was replaced by 100 μl of fresh medium in which the compound to be tested was dissolved at the following molar concentrations: 10^−9 M, 5.10^−9 M, 10^−8 M, 5.10^−8 M, 10^−7 M, 5.10^−7 M, 10^−6 M, 5.10^−6 M and 10^−5 M. Each experiment was repeated 6 times.
(§4) After 72 hours of incubation at 37° C. with (experimental conditions) or without (control condition) the compound to be tested, the medium was replaced by 100 μl MTT dissolved in RPMI at a concentration of 1 mg/ml. The micro-wells were subsequently incubated during 3 hours at 37° C. and centrifuged at 400 g during 10 minutes. MTT was removed and formazan crystals formed were dissolved in 100 μl DMSO. The micro-wells were shaken for 5 minutes and read on a spectrophotometer at wavelengths of 570 nm (maximum formazan absorbance) and 630 nm (back-ground noise).
(§5) For each experimental condition, the mean optical density was calculated, as well as the percentage of remaining living cells in comparison with the control.
(§6) IC50 values for compounds of examples 3 to 26 were obtained on cell lines Hs683, U-373MG, HCT-15, LoVo, A549 and MCF-7 described in Table 1. IC50 values for compounds from examples 27 to 45 were obtained on cell lines PC3, U-373MG, BxPC3, LoVo, A549 and MCF-7 described in Table 1.

Assay [2] has as its system U-373 MG (Glioma cancer) cells. As to the kind of experiment: Effect on cell migration, U-373MG. The format is cell-based. The settings on record: Homo sapiens, U373 MG, 22 hours on the 25% of most motile cells, p value in same cell, read-out: Maximum effects (cell migration); for Emax at 1 µM: at 10^−6 M. As for the experimental part: (§7) Cells of different cancer lines, i.e. U-373 MG (Glioma cancer), PC3 (prostate cancer and A549 (Lung cancer) were seeded on culture flask 48 hours before the migration experiment. On the test day, cells were treated with or without the azonafide derivatives mentioned in table 3 in closed Falcon dishes containing a buffered medium at a controlled temperature (37.0±0.1° C.) for 12 or 22 hours, as noted in the right column of table 3. The azonafide derivatives were used at three non-cytotoxic concentrations (10^−6 M, 10^−7, 10^−8 M). Migration of the cells was observed by means of a CCD-camera mounted on a phase-contrast microscope. Statistical analysis of the migration, with the non-parametric Mann-Whitney test, was established for 25% and 50% of the most motile cells and for the entire cell population.

Assay [3] has as its system U-373 MG, PC-3 and/or A549 cancer cells. Briefly: Effect on cell migration, summary of table 3. The format is cell-based, human. The settings on record: for migration level of cancer cells: U-373 MG, PC-3 and/or A549 cancer cells at the non-cytotoxic concentrations of this study; for cell migration activity compared with the closest compounds known in the art: comparison drawn from table 3. As for the experimental part: as §7

In a further assay the test system is A549 (Lung cancer) cells. As to the kind of experiment: Effect on cell migration, A549. The settings on record: Homo sapiens, 22 hours on the 25% of most motile cells, p value in same cell, read-out: Maximum effects (cell migration); for Emax at 1 µM: at 10^−6 M. Format: cell-based. As for the experimental part:
as §7

Assay [4] relates to human cancer cell lines PC3, U-373MG, BxPC3, LoVo, A549 and MCF-7. Briefly: MTT test, effect on overall cell growth (mean of six cell lines, examples 27 to 45). As to conditions: mean of six cell lines PC3, U-373MG, A549, MCF-7, 72 hours incubation, range of molar concentrations resulting in 50% inhibition of overall tumor cells growth. Format: cell-based. As for the experimental part:
as §1, §2, §3, §4, §5, §6
(Tetrazolium assays rely on reduction of a dye to a coloured formazan, in cell work by metabolically active cells.)

Where a name gives a salt, the structure may show the parent alone.

One may read the IC50 as the concentration at which inhibition is half-maximal. In assay [1], `CN(C)CCN1C(=O)c2cccc3cc4cccc(N)c4c(c23)C1=O` [Example 3, 11-amino-2-[2-(dimethylamino)ethyl]-1H-dibenzo[de,h]isoquinoline-1,3(2H)-dione, reference compound] gave a concentration for half-maximal inhibition (IC50) of 5 to 10 µM. Besides, in assay [2], the Emax at 1 µM was -31%.

`CN(C)CCN1C(=O)c2cccc3cc4cccc(NC(=O)CCCCl)c4c(c23)C1=O` [Example 10, 4-chloro-N-{2-[2-(dimethylamino)ethyl]-1,3-dioxo-2,3-dihydro-1H-dibenzo[de,h]isoquinolin-11-yl}butanamide]: the “migration level of cancer cells” value in assay [3] is reported as “induced a decrease in the migration level”. Further, the 50% inhibitory concentration (IC50) in assay [1] is 1 to 5 µM. Also, the Emax at 1 µM in the assay with A549 (Lung cancer) cells is -24%.

`CN(C)CCN1C(=O)c2cccc3cc4cccc(NC(=O)Nc5ccc6c(c5)OCO6)c4c(c23)C1=O` [Example 12, 1-(1,3-benzodioxol-5-yl)-3-{2-[2-(dimethylamino)ethyl]-1,3-dioxo-2,3-dihydro-1H-dibenzo[de,h]isoquinolin-11-yl}urea]: the “migration level of cancer cells” value in assay [3] is on record as “induced a decrease in the migration level”. In assay [1], this compound had an IC50 of 5 to 10 µM. Besides, in assay [2] (at 10^−7 M), the Emax at 0.1 µM is -20%.

For the compound `CN(C)CCN1C(=O)c2cccc3cc4c(NC(=O)Nc5ccc6c(c5)OCO6)cccc4c(c23)C1=O` [Example 14, 1-(1,3-benzodioxol-5-yl)-3-{2-[2-(dimethylamino)ethyl]-1,3-dioxo-2,3-dihydro-1H-dibenzo[de,h]isoquinolin-8-yl}urea], the “migration level of cancer cells” value in assay [3] was “induced a decrease in the migration level”. Moreover, in assay [1], the IC50 was more than 10 µM. Also, the Emax at 1 µM in the assay with A549 (Lung cancer) cells was -24%.

For the compound `CN(C)CCN1C(=O)c2cccc3cc4c(NC(=O)Nc5ccc6c(c5)OCO6)cccc4c(c23)C1=O` [Example 15, 1-(1,3-benzodioxol-5-yl)-3-{2-[2-(dimethylamino)ethyl]-1,3-dioxo-2,3-dihydro-1H-dibenzo[de,h]isoquinolin-8-yl}urea hydrochloride], the “cell migration activity compared with the closest compounds known in the art” value in assay [3] is “significantly greater cell migration activity than the closest compounds known in the art, or similar cell migration activity at significantly lower concentrations”. Moreover, the Emax at 1 µM in assay [2] is -51%.

Take `CN(C)CCN1C(=O)c2cccc3cc4cccc(NC(=O)Oc5ccc(F)cc5)c4c(c23)C1=O` [Example 24, 4-fluorophenyl {2-[2-(dimethylamino)ethyl]-1,3-dioxo-2,3-dihydro-1H-dibenzo[de,h]isoquinolin-11-yl}carbamate]: in assay [3], the “migration level of cancer cells” value was “induced a decrease in the migration level” and the “cell migration activity compared with the closest compounds known in the art” value is reported as “significantly greater cell migration activity than the closest compounds known in the art, or similar cell migration activity at significantly lower concentrations”. In assay [1], this compound registered a half-maximal inhibitory concentration (IC50) of more than 10 µM. Also, the Emax at 0.01 µM with A549 (Lung cancer) cells (at 10^−8 M) is -31%.

`CC(C)COC(=O)Nc1cccc2cc3cccc4c3c(c12)C(=O)N(CCN(C)C)C4=O` [Example 27, isobutyl {2-[2-(dimethylamino)ethyl]-1,3-dioxo-2,3-dihydro-1H-dibenzo[de,h]isoquinolin-11-yl}carbamate]: in assay [3], the “migration level of cancer cells” value is listed as “induced a decrease in the migration level”. The Emax at 1 µM in the assay with A549 (Lung cancer) cells is -28%. For the same compound, in assay [4], the IC50 was more than 10 µM.
